According to US11225505B2, “Antimicrobial polymyxin derivative compounds” (MONASH UNIVERSITY, priority 2015, dated 2022):
In brackets after ≈: the same amount, converted by molar mass. Where a SMILES comes first, the peptide text is derived from it. Bridges are numbered along the chain shown (N, C = ends). [ ]: non-standard residue; d: D form. The star is where a group is joined. X63 = O=C(c1ccc(C(F)(F)F)nc1Cl)*; X28 = Cc1cc(C(=O)*)cc(Cl)n1; X12 = CCc1ccc(C(=O)*)nc1; X26 = CCc1ccc(C(=O)*)cn1; Dab = NCC[C@H](N)C(=O)O; Abu = CC[C@H](N)C(=O)O; Dap = NC[C@H](N)C(=O)O

Key:
Format in all cases: cell-based
[1] = system: Acinetobacter baumannii ATCC 17978; details: ATCC 17978
How it was run: (§1)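 Susceptibility of polymyxin-susceptible Gram-negative strains, including multidrug-resistant clinical isolates PA022 and AB034, was tested by broth microdilution. Cation-adjusted Mueller-Hinton broth and the CLSI M100-S24 method were used.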

[2] = system: Acinetobacter baumannii FADDI-AB034; details: FADDI-AB034
How it was run: as §1

[3] = system: Enterobacter cloacae FADDI-EC001; details: FADDI-EC001
How it was run: (§2)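 MIC; CLSI broth microdilution; cation-adjusted MH broth; test articles as TFA salts; polymyxin B control; polymyxin-susceptible isolates.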

[4] = system: Enterobacter cloacae FADDI-EC003; details: FADDI-EC003
How it was run: as §1

[5] = system: Enterobacter cloacae FADDI-EC006; details: FADDI-EC006
How it was run: as §1

[6] = system: Klebsiella pneumoniae FADDI-KP022; details: FADDI-KP022
How it was run: as §1

[7] = system: Klebsiella pneumoniae FADDI-KP032; details: FADDI-KP032
How it was run: as §1

[8] = system: Klebsiella pneumoniae Kp BM1; details: Kp BM1
How it was run: as §2

[9] = system: Pseudomonas aeruginosa ATCC 27853; details: ATCC 27853
How it was run: as §1

[10] = system: Pseudomonas aeruginosa FADDI-PA01; details: FADDI-
How it was run: as §1

[11] = system: Pseudomonas aeruginosa FADDI-PA022; details: FADDI-PA022
How it was run: as §1

[12] = system: Pseudomonas aeruginosa FADDI-PA038; details: FADDI-PA038
How it was run: as §1

[13] = system: Acinetobacter baumannii FADDI-AB030; test: microbe, parasite or virus in culture; details: FADDI-AB030
How it was run: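 Lipopeptide TFA salts tested against the multidrug-resistant clinical isolate by CLSI (M100-S24) broth microdilution in cation-adjusted Mueller-Hinton broth, with polymyxin B sulphate as control; MIC read.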

Row | Structure (SMILES) | Minimum inhibitory concentration [1] [µg/mL] | Minimum inhibitory concentration [2] [µg/mL] | Minimum inhibitory concentration [3] [µg/mL] | Minimum inhibitory concentration [4] [µg/mL] | Minimum inhibitory concentration [5] [µg/mL] | Minimum inhibitory concentration [6] [µg/mL] | Minimum inhibitory concentration [7] [µg/mL] | Minimum inhibitory concentration [8] [µg/mL] | Minimum inhibitory concentration [9] [µg/mL] | Minimum inhibitory concentration [10] [µg/mL] | Minimum inhibitory concentration [11] [µg/mL] | Minimum inhibitory concentration [12] [µg/mL] | Minimum inhibitory concentration [13] [µg/mL]
1 | CC[C@@H]1NC(=O)[C@@H](CC(C)C)NC(=O)[C@H](CCN)NC(=O)[C@@H](NC(=O)[C@H](CN)NC(=O)[C@@H](NC(=O)[C@H](CCN)NC(=O)c2cc(C)nc(Cl)c2)[C@@H](C)O)CCNC(=O)[C@H]([C@@H](C)O)NC(=O)[C@H](CCN)NC(=O)[C@H](CCN)NC1=O [Compound 39] (X28-[Dab]T[Dap][Dab][Dab][dL][Abu][Dab][Dab]T; lactam 4-C) | 1 (≈ 0.877 µM) | 1 (≈ 0.877 µM) | 0.5 (≈ 0.438 µM) | 0.5 (≈ 0.438 µM) | 1 (≈ 0.877 µM) | <0.125 | 0.5 (≈ 0.438 µM) | 1 (≈ 0.877 µM) | 0.5 (≈ 0.438 µM) | 0.5 (≈ 0.438 µM) | 0.5 (≈ 0.438 µM) | 1 (≈ 0.877 µM) | 0.5 (≈ 0.438 µM)
2 | CC[C@@H]1NC(=O)[C@@H](CC(C)C)NC(=O)[C@H](CCN)NC(=O)[C@@H](NC(=O)[C@H](CN)NC(=O)[C@@H](NC(=O)[C@H](CCN)NC(=O)c2ccc(C(F)(F)F)nc2Cl)[C@@H](C)O)CCNC(=O)[C@H]([C@@H](C)O)NC(=O)[C@H](CCN)NC(=O)[C@H](CCN)NC1=O [Compound 40] (X63-[Dab]T[Dap][Dab][Dab][dL][Abu][Dab][Dab]T; lactam 4-C) | 0.5 (≈ 0.419 µM) | <0.125 | <0.125 | <0.125 | <0.125 | <0.125 | <0.125 | <0.125 | 0.5 (≈ 0.419 µM) | 0.5 (≈ 0.419 µM) | 0.5 (≈ 0.419 µM) | 1 (≈ 0.837 µM) | <0.125
3 | CCc1ccc(C(=O)N[C@@H](CCN)C(=O)N[C@H](C(=O)N[C@@H](CN)C(=O)N[C@H]2CCNC(=O)[C@H]([C@@H](C)O)NC(=O)[C@H](CCN)NC(=O)[C@H](CCN)NC(=O)[C@H](CC)NC(=O)[C@@H](CC(C)C)NC(=O)[C@H](CCN)NC2=O)[C@@H](C)O)cn1 [Compound 41] (X26-[Dab]T[Dap][Dab][Dab][dL][Abu][Dab][Dab]T; lactam 4-C) | 2 (≈ 1.79 µM) | 2 (≈ 1.79 µM) | <0.125 | <0.125 | 0.25 (≈ 0.223 µM) | <0.125 | <0.125 | <0.125 | 0.25 (≈ 0.223 µM) | 0.25 (≈ 0.223 µM) | <0.125 | 0.5 (≈ 0.446 µM) | 2 (≈ 1.79 µM)
4 | CCc1ccc(C(=O)N[C@@H](CCN)C(=O)N[C@H](C(=O)N[C@@H](CN)C(=O)N[C@H]2CCNC(=O)[C@H]([C@@H](C)O)NC(=O)[C@H](CCN)NC(=O)[C@H](CCN)NC(=O)[C@H](CC)NC(=O)[C@@H](CC(C)C)NC(=O)[C@H](CCN)NC2=O)[C@@H](C)O)nc1 [Compound 42] (X12-[Dab]T[Dap][Dab][Dab][dL][Abu][Dab][Dab]T; lactam 4-C) | 1 (≈ 0.893 µM) | 0.5 (≈ 0.446 µM) | <0.125 | <0.125 | <0.125 | <0.125 | <0.125 | 0.25 (≈ 0.223 µM) | <0.125 | <0.125 | <0.125 | 0.25 (≈ 0.223 µM) | <0.125
